# In patent US20230330254A1 (Regeneron Pharmaceuticals, Inc., priority 2022, published 2023):
# pEC50: −log10 of the molar value. Where a SMILES comes first, the peptide text is derived from it. [ ]: non-standard residue; d: D form. The star is where a group is joined. Bip(2'-Et,4'-O(CH2)4NH2) = CCc1cc(OCCCCN)ccc1-c1ccc(C[C@H](N)C(=O)O)cc1; Nva(5-(3,5-Me2Ph)) = Cc1cc(C)cc(CCC[C@H](N)C(=O)O)c1; Ala(1H-tetrazol-5-yl) = N[C@@H](Cc1nnn[nH]1)C(=O)O; αMePhe(2-F) = C[C@](N)(Cc1ccccc1F)C(=O)O; X8 = O=C([C@H]1CCN(CCc2cnc[nH]2)C1)*
# Assays:
# [1] = target: human GLP1R (Homo sapiens, UniProt P43220); assay: Luciferase reporter assay, HEK293/CRE-Luc/hGLP1R (Example 17); assay type: cell-based; set-up: engineered to express full-length human GLP1R, cynomolgus GLP1R; expressed in transfected cells; host or cells: HEK293/CRE-Luc; conditions: HEK293/CRE-Luc/hGLP1R; for S/N: highest RLU / RLU of untreated wells; for pEC50: payloads and linker-payloads, experiments A-E, M2361 repeated in each, read-out: EC50; for Relative Potency (% M2361 EC50) / Relative Signal:Noise (% M2361): relative to M2361 of the same experiment
# From the text: (§1) To test the activity of GLP1R agonist payloads, GLP1R agonist linker-payloads (LPs), and anti-GLP1R antibody tethered drug conjugates (ATDCs) of the invention, a cell-based cAMP responsive luciferase reporter assay was developed. To generate the assay cell line, the firefly luciferase gene was placed under the control of a cAMP response element (CRE) located upstream of a minimal promoter and transfected into HEK293 cells and referred to herein as HEK293/CRE-Luc cells.
# (§2) Three-fold serial dilutions of free payloads or LPs were prepared in 100% DMSO, transferred to fresh assay media, and added to the cells at a final constant DMSO concentration of 0.2%. The last well in the plate served as a blank control containing only the assay media and 0.2% DMSO (untreated well) and was plotted as a continuation of the 3-fold serial dilution. Four to six hours later, luciferase activity was determined after the addition of One-Glo™ reagent (Promega, Cat #E6130) to each well. Relative light units (RLUs) were measured on an Envision luminometer (PerkinElmer) and EC50 values were determined using a four-parameter logistic equation over a 12-point dose response curve (GraphPad Prism). The signal to noise (S/N) was determined by taking the ratio of the highest RLU on the dose response curve to the RLU in the untreated wells. Data was generated across several experiments (A-E) with M2361 serving as a reference standard in each experiment to calculate the payload relative potency ((M2361 EC50/payload EC50)*100)) and relative S/N ((payload SN/M2361 SN)*100)).
# [2] = tested on: HEK293/CRE-Luc cells; assay: Luciferase reporter assay, HEK293/CRE-Luc cells without GLP1R (Example 17); assay type: cell-based, human; conditions: HEK293/CRE-Luc cells without hGLP1R, payloads and linker-payloads; for pEC50: read-out: EC50
# From the text: as §1, §2
# Sequence of human GLP1R (P43220 24-463): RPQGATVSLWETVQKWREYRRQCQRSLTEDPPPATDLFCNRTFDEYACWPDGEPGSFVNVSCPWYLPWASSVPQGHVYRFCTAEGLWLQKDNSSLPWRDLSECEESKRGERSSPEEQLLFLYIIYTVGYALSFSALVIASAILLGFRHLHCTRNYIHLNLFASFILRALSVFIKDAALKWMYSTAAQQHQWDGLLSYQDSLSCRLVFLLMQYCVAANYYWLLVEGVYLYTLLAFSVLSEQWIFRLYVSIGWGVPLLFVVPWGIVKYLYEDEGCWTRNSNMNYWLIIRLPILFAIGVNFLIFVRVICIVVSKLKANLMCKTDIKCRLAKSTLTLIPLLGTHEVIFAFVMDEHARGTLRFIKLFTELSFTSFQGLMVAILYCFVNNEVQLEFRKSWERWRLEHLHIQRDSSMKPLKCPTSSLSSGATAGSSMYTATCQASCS
S/N [1],pEC50 [1],Relative Potency (% M2361 EC50) [1],Relative Signal:Noise (% M2361) [1],SMILES,S/N [2],pEC50 [2]
74.9,9.74,2.9%,113.9%,CCc1cc(OCCCCN)ccc1-c1ccc(C[C@H](NC(=O)[C@H](CC(=O)O)NC(=O)[C@H](CO)NC(=O)[C@@H](NC(=O)[C@](C)(Cc2ccccc2F)NC(=O)[C@@H](NC(=O)CNC(=O)[C@H](Cc2nn[nH]n2)NC(=O)C2(C)CCN(CCc3cnc[nH]3)C2=O)[C@@H](C)O)[C@@H](C)O)C(=O)N[C@@H](CCCc2cc(C)cc(C)c2)C(N)=O)cc1 (stereo in doubt) [P14],1.6,< 6.70
55.1,9.66,2.5%,83.8%,"CCc1cc(OCCCCN)ccc1-c1ccc(C[C@H](NC(=O)[C@H](CC(=O)O)NC(=O)[C@H](CO)NC(=O)[C@@H](NC(=O)[C@](C)(Cc2ccccc2F)NC(=O)[C@@H](NC(=O)CNC(=O)[C@H](Cc2nn[nH]n2)NC(=O)[C@H]2CCN(CCc3cnc[nH]3)C2)[C@@H](C)O)[C@@H](C)O)C(=O)N[C@@H](CCCc2cc(C)cc(C)c2)C(N)=O)cc1 [P16] (X8-[Ala(1H-tetrazol-5-yl)]GT[αMePhe(2-F)]TSD[Bip(2'-Et,4'-O(CH2)4NH2)][Nva(5-(3,5-Me2Ph))]-NH2)",1.1,< 6.70
67.8,–,40.3%,103.1%,CCc1cc(OCCCCN)ccc1-c1ccc(C[C@H](NC(=O)[C@H](CC(=O)O)NC(=O)[C@H](CO)NC(=O)[C@@H](NC(=O)[C@](C)(Cc2ccccc2F)NC(=O)[C@@H](NC(=O)CNC(=O)[C@H](Cc2nn[nH]n2)NC(=O)[C@@]2(C)CCN(CCc3cnc[nH]3)C2=O)[C@@H](C)O)[C@@H](C)O)C(=O)N[C@@H](CCCc2cc(C)cc(C)c2)C(N)=O)cc1 [P15],1.1,< 6.70
78.1,9.44,2.2%,108.6%,"CCc1cc(OCCCCNC(=O)[C@H](CO)NC(=O)CNC(=O)CNC(=O)CNC(=O)CNC(=O)CCC(=O)N2Cc3ccccc3C#Cc3ccccc32)ccc1-c1ccc(C[C@H](NC(=O)[C@H](CC(=O)O)NC(=O)[C@H](CO)NC(=O)[C@@H](NC(=O)[C@](C)(Cc2ccccc2F)NC(=O)[C@@H](NC(=O)CNC(=O)[C@H](Cc2nn[nH]n2)NC(=O)C(C)(C)C(N)=O)[C@@H](C)O)[C@@H](C)O)C(=O)N[C@@H](CCCc2cc(C)cc(C)c2)C(N)=O)cc1 [LP14, DIBAC- suc-G4S- P4]",1.3,< 7.70
